Assay results from PubChem BioAssay (NCI).
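Five concentrations, 48 hours, 96-well plates. At the GI50, growth is halved. TGI is the concentration that stops growth completely.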

Key:
Test in all cases: NCI anticancer screen, dose series, 48 h
[1] = system: 786-0 renal
[2] = system: A498 renal
[3] = system: A549 NSCLC
[4] = system: ACHN renal
[5] = system: BT-549 breast
[6] = system: CAKI-1 renal
[7] = system: CCRF-CEM leukemia
[8] = system: COLO 205 colon
[9] = system: DU-145 prostate
[10] = system: EKVX NSCLC
[11] = system: HCC-2998 colon
[12] = system: HCT-116 colon
[13] = system: HCT-15 colon
[14] = system: HL-60(TB) leukemia
[15] = system: HOP-62 NSCLC
[16] = system: HOP-92 NSCLC
[17] = system: HS 578T breast
[18] = system: HT29 colon
[19] = system: IGROV1 ovarian
[20] = system: K-562 leukemia
[21] = system: KM12 colon
[22] = system: LOX IMVI melanoma
[23] = system: M14 melanoma
[24] = system: MALME-3M melanoma
[25] = system: MCF7 breast
[26] = system: MDA-MB-231 breast
[27] = system: MDA-MB-435
[28] = system: MOLT-4 leukemia
[29] = system: NCI-H226 lung
[30] = system: NCI-H23 lung
[31] = system: NCI-H460 lung
[32] = system: NCI-H522 lung
[33] = system: NCI/ADR-RES ovarian
[34] = system: OVCAR-3 ovarian
[35] = system: OVCAR-4 ovarian
[36] = system: OVCAR-5 ovarian
[37] = system: OVCAR-8 ovarian
[38] = system: PC-3 prostate
[39] = system: RPMI-8226 leukemia
[40] = system: RXF 393 renal
[41] = system: SF-268 CNS
[42] = system: SF-295 CNS
[43] = system: SF-539 CNS
[44] = system: SK-MEL-2 melanoma
[45] = system: SK-MEL-28 melanoma
[46] = system: SK-MEL-5 melanoma
[47] = system: SK-OV-3 ovarian
[48] = system: SN12C renal
[49] = system: SNB-19 CNS
[50] = system: SNB-75 CNS
[51] = system: SR leukemia
[52] = system: SW-620 colon
[53] = system: T-47D breast
[54] = system: TK-10 renal
[55] = system: U251 CNS
[56] = system: UACC-257 melanoma
[57] = system: UACC-62 melanoma
[58] = system: UO-31 renal

SMILES: Nc1nc(N)c2nc(CNc3ccc(C(=O)CC(CCC(=O)O)C(=O)O)cc3)cnc2n1 (stereo not given)
- GI50 [1]: 0.0566 µM
- TGI [1]: > 100 µM
- GI50 [2]: 3.15 µM
- TGI [2]: > 100 µM
- GI50 [3]: 0.153 µM
- TGI [3]: > 100 µM
- GI50 [4]: 0.162 µM
- TGI [4]: > 100 µM
- GI50 [5]: 0.357 µM
- GI50 [6]: 0.0412 µM
- TGI [6]: > 100 µM
- GI50 [7]: 0.0562 µM
- TGI [7]: > 100 µM
- GI50 [8]: 5.77 µM
- TGI [8]: > 100 µM
- GI50 [9]: 2.24 µM
- TGI [9]: > 100 µM
- GI50 [10]: 0.517 µM
- TGI [10]: > 100 µM
- GI50 [11]: 0.179 µM
- TGI [11]: > 96.2 µM
- GI50 [12]: < 0.0185 µM
- TGI [12]: > 100 µM
- GI50 [13]: 0.168 µM
- TGI [13]: > 100 µM
- GI50 [14]: < 0.018 µM
- TGI [14]: > 100 µM
- GI50 [15]: 0.127 µM
- TGI [15]: > 100 µM
- GI50 [16]: > 100 µM
- TGI [16]: > 100 µM
- GI50 [17]: > 100 µM
- TGI [17]: > 100 µM
- GI50 [18]: 0.0417 µM
- TGI [18]: > 100 µM
- GI50 [19]: 0.465 µM
- TGI [19]: > 100 µM
- GI50 [20]: 0.0406 µM
- TGI [20]: > 100 µM
- GI50 [21]: 0.232 µM
- TGI [21]: > 100 µM
- GI50 [22]: < 0.0229 µM
- TGI [22]: > 100 µM
- GI50 [23]: 0.202 µM
- TGI [23]: > 100 µM
- GI50 [24]: 1.43 µM
- TGI [24]: > 100 µM
- GI50 [25]: 0.0714 µM
- TGI [25]: > 100 µM
- GI50 [26]: > 100 µM
- TGI [26]: > 100 µM
- GI50 [27]: 0.137 µM
- TGI [27]: > 100 µM
- GI50 [28]: 0.125 µM
- TGI [28]: > 100 µM
- GI50 [29]: 1.07 µM
- TGI [29]: > 100 µM
- GI50 [30]: 0.441 µM
- TGI [30]: > 100 µM
- GI50 [31]: 0.127 µM
- TGI [31]: > 100 µM
- GI50 [32]: 0.47 µM
- TGI [32]: > 100 µM
- GI50 [33]: 0.224 µM
- TGI [33]: > 100 µM
- GI50 [34]: > 100 µM
- TGI [34]: > 100 µM
- TGI [35]: > 100 µM
- TGI [36]: > 100 µM
- GI50 [37]: 0.166 µM
- TGI [37]: > 100 µM
- TGI [38]: > 100 µM
- TGI [39]: > 100 µM
- GI50 [40]: > 100 µM
- TGI [40]: > 100 µM
- GI50 [41]: 0.197 µM
- TGI [41]: > 100 µM
- GI50 [42]: 0.19 µM
- TGI [42]: > 100 µM
- GI50 [43]: 0.176 µM
- TGI [43]: > 100 µM
- GI50 [44]: > 100 µM
- TGI [44]: > 100 µM
- GI50 [45]: > 50.7 µM
- TGI [45]: > 100 µM
- GI50 [46]: 0.45 µM
- TGI [46]: > 100 µM
- TGI [47]: > 100 µM
- GI50 [48]: 0.18 µM
- TGI [48]: > 100 µM
- GI50 [49]: 0.627 µM
- TGI [49]: > 100 µM
- GI50 [50]: 4.71 µM
- TGI [50]: > 100 µM
- GI50 [51]: < 0.019 µM
- GI50 [52]: 0.0332 µM
- TGI [52]: > 100 µM
- GI50 [53]: > 100 µM
- TGI [53]: > 100 µM
- GI50 [54]: 0.385 µM
- TGI [54]: > 100 µM
- GI50 [55]: 0.215 µM
- TGI [55]: > 100 µM
- GI50 [56]: > 25.5 µM
- TGI [56]: > 100 µM
- GI50 [57]: 0.374 µM
- TGI [57]: > 100 µM
- GI50 [58]: 0.168 µM
- TGI [58]: > 100 µM

SMILES: COc1cc2c(c(OC)c1OC)-c1ccc(OC)c(=O)cc1[C@@H](NC(=O)CCl)CC2
- GI50 [1]: < 0.01 µM
- TGI [1]: 1.7 µM
- GI50 [2]: < 0.01 µM
- TGI [2]: 0.164 µM
- GI50 [3]: < 0.0141 µM
- TGI [3]: 25.6 µM
- GI50 [4]: 0.0295 µM
- TGI [4]: > 54.1 µM
- GI50 [5]: < 0.01 µM
- GI50 [6]: 0.0386 µM
- TGI [6]: 21.2 µM
- GI50 [7]: < 0.01 µM
- TGI [7]: > 33.3 µM
- GI50 [8]: < 0.01 µM
- TGI [8]: < 0.01 µM
- GI50 [9]: < 0.01 µM
- TGI [9]: < 0.01 µM
- GI50 [10]: < 0.0191 µM
- TGI [10]: 23.7 µM
- GI50 [11]: < 0.01 µM
- TGI [11]: 22.3 µM
- GI50 [12]: < 0.01 µM
- TGI [12]: 0.0157 µM
- GI50 [13]: 0.0308 µM
- TGI [13]: > 100 µM
- GI50 [14]: < 0.01 µM
- TGI [14]: < 0.0136 µM
- GI50 [15]: < 0.01 µM
- TGI [15]: 10.2 µM
- TGI [16]: 7.2 µM
- GI50 [17]: < 0.01 µM
- TGI [17]: > 100 µM
- GI50 [18]: < 0.01 µM
- TGI [18]: 10.1 µM
- GI50 [19]: < 0.01 µM
- TGI [19]: 21.9 µM
- GI50 [20]: < 0.01 µM
- TGI [20]: > 100 µM
- GI50 [21]: < 0.01 µM
- TGI [21]: 0.0521 µM
- GI50 [22]: < 0.01 µM
- GI50 [23]: < 0.01 µM
- TGI [23]: < 0.01 µM
- GI50 [24]: 2.51 µM
- TGI [24]: 26.5 µM
- GI50 [25]: < 0.01 µM
- TGI [25]: 17.4 µM
- GI50 [26]: < 0.01 µM
- TGI [26]: > 46 µM
- GI50 [27]: < 0.01 µM
- TGI [27]: < 0.01 µM
- GI50 [28]: < 0.01 µM
- TGI [28]: > 100 µM
- GI50 [29]: 0.0357 µM
- TGI [29]: 10.9 µM
- GI50 [30]: < 0.01 µM
- TGI [30]: > 33 µM
- GI50 [31]: < 0.01 µM
- TGI [31]: 0.585 µM
- GI50 [32]: < 0.01 µM
- TGI [32]: < 0.01 µM
- GI50 [33]: 0.142 µM
- TGI [33]: > 23.2 µM
- GI50 [34]: < 0.01 µM
- TGI [34]: < 0.01 µM
- GI50 [35]: < 0.01 µM
- TGI [35]: > 100 µM
- TGI [36]: 30.5 µM
- GI50 [37]: < 0.01 µM
- TGI [37]: > 33.6 µM
- GI50 [38]: < 0.01 µM
- TGI [38]: 30.9 µM
- GI50 [39]: < 0.01 µM
- TGI [39]: 15.8 µM
- GI50 [40]: < 0.01 µM
- TGI [40]: 19.5 µM
- GI50 [41]: < 0.01 µM
- TGI [41]: 3.53 µM
- GI50 [42]: < 0.01 µM
- TGI [42]: 0.0743 µM
- GI50 [43]: < 0.01 µM
- TGI [43]: 23.7 µM
- GI50 [44]: < 0.01 µM
- TGI [44]: 10.3 µM
- GI50 [45]: 0.304 µM
- TGI [45]: 53.8 µM
- GI50 [46]: < 0.01 µM
- TGI [46]: < 0.0124 µM
- GI50 [47]: < 0.01 µM
- GI50 [48]: < 0.0142 µM
- TGI [48]: > 51.5 µM
- GI50 [49]: < 0.01 µM
- TGI [49]: 28.7 µM
- GI50 [50]: < 0.01 µM
- TGI [50]: 54.7 µM
- GI50 [51]: < 0.01 µM
- TGI [51]: > 95.7 µM
- GI50 [52]: < 0.01 µM
- TGI [52]: 12 µM
- GI50 [53]: 13.2 µM
- TGI [53]: > 59 µM
- GI50 [54]: 0.0647 µM
- TGI [54]: 14.2 µM
- GI50 [55]: < 0.01 µM
- TGI [55]: 2.02 µM
- GI50 [56]: 1.16 µM
- TGI [56]: 31.8 µM
- GI50 [57]: < 0.01 µM
- TGI [57]: 20.1 µM
- GI50 [58]: 0.0673 µM
- TGI [58]: 45.3 µM
